Laboratory results as given in patent US12698473B2, “Cell-containing structure” (Ricoh Company, Ltd., priority 2021, dated 2026).

Experiments:
[1] = system: cultured product composed of cell masses containing hiPSC-Neuron and astrocytes derived from a human fetus; experiment: Evaluation of electrophysiological neurotoxicity of test compound: firing frequency response on MEA plate; format: cell-based; conditions: spontaneous firing frequency before exposure 200 Hz or more per 16 electrodes; compared with 4 times or more at 4 to <100 Hz; FIG. 10
Procedure: A multi-electrode array (MEA) plate was prepared as a cell-containing container which is a cell-containing structure of the present embodiment.
As a plate used for the MEA plate, CytoView MEA Plate (commercially available from Axion Biosystems) having 6×8 wells (a total of 48 wells) and a micro electrode array on the well bottom was used. […]
In the main test, the action potential of neurons adhered onto a micro electrode 3 arranged on the well bottom as shown in FIG. 1 was measured as an extracellular potential, and the neurotoxicity was evaluated from the change in extracellular potential when the test compound was treated. […]
That is, using maestro Pro (commercially available from Axion Biosystems), for the prepared MEA Cytoview Plate (commercially available from Axion Biosystems), the results of the extracellular potential of the cultured product 2 composed of cell masses containing hiPSC-Neuron and astrocytes derived from a human fetus, which were adhered to the well bottom 1 shown in FIG. 1 and FIG. 2, measured using maestro Pro for 10 minutes are illustrated as a raster plot 6 of FIG. 3 and a graph 7 of the number of detected spikes. […] The spontaneous firing frequency (Hz) can be detected from the number of peaks in the graph […]. […]

[2] = system: cultured product composed of cell masses containing hiPSC-Neuron and astrocytes derived from a human fetus; experiment: Pharmacological test with anti-epileptic drugs on MEA plate (extracellular potential, raster plot, number of spikes); format: cell-based; conditions: Before vs After drug exposure; FIGS. 6-8
Procedure: From 22 days after cell seeding, once a week, extracellular potential data was acquired for 10 minutes using an extracellular measurement device maestro (Axion Biosystems).
That is, using maestro Pro (commercially available from Axion Biosystems), for the prepared MEA Cytoview Plate (commercially available from Axion Biosystems), the results of the extracellular potential of the cultured product 2 composed of cell masses containing hiPSC-Neuron and astrocytes derived from a human fetus, which were adhered to the well bottom 1 shown in FIG. 1 and FIG. 2, measured using maestro Pro for 10 minutes are illustrated as a raster plot 6 of FIG. 3 and a graph 7 of the number of detected spikes. […] The spontaneous firing frequency (Hz) can be detected from the number of peaks in the graph 7 per hour.
Using the plate produced in Experimental Example 1, a pharmacological test was performed using various drugs. The effect of the drug was confirmed by exposing an anti-epileptic drug having a function of inhibiting nerve firing to a sample. The evaluated drugs were Carbamazepine, Phenytoin, and Zonisamide, and the measurement was performed under the same conditions as the measurement of the extracellular potential data of Experimental Example 1.
A graph of a raster plot that visualizes the firing state and the number of detected. spikes for each drug is shown for Carbamazepine in FIG. 6, Phenytoin in FIG. 7, and Zonisamide in FIG. 8. Before in the drawings indicates before drug exposure, and After indicates after drug exposure. In all of the drugs, it was observed that the spontaneous firing frequency that could be detected from the number of spikes after drug exposure was reduced, and the mode in which that firing activity of the nerve was reduced after drug exposure was confirmed. That is, it was observed that the plate of this example could be used for detection in the pharmacological test using various drugs.

Row | Compound | response rate to the test compound (firing frequency after exposure) [1] | spontaneous firing frequency detected from the number of spikes after drug exposure [2]
1 | CC[C@@H]1C(=O)OC[C@@H]1Cc1cncn1C [Pilocarpine] | about half that | –
2 | NS(=O)(=O)Cc1noc2ccccc12 [Zonisamide] | – | reduced
3 | Nc1ccncc1 [4-AP] | about half that | –
4 | NC(=O)N1c2ccccc2C=Cc2ccccc21 [Carbamazepine] | – | reduced
5 | O=C1NC(=O)C(c2ccccc2)(c2ccccc2)N1 [Phenytoin] | – | reduced
